{"source": "patent US20140350119A1", "about": "“OPHTHALMIC COMPOSITION COMPRISING GERANYLGERANYLACETONE” (ROHTO PHARMACEUTICAL CO., LTD., priority 2012, published 2014)", "key": {"[1]": {"test_system": "rat-derived retinal ganglion cells (RGC)", "assay": "Neurite outgrowth inducing effect in culture system of rat-derived retinal ganglion cells", "format": "cell-based, Wistar rats", "conditions": "all-trans form content 3 μM; 48 hours; FIG. 2, FIG. 3; n=4", "from_the_text": "The progress of visual impairment in glaucoma is associated with retinal ganglion cell (RGC) death due to blood flow failure occurring near the optic nerve (Folia Pharmacol. Jpn. 128, 255-258 (2006)). Accordingly, a culture system of rat-derived retinal neurons (Current protocols in Neuroscience 3.22.1-3.22.10, October 2010), which is widely used as one of study tools for optic nerve diseases such as a glaucoma, was used to examine the neurite outgrowth inducing effect of GGA.\nFour-day-old Wistar rats (Japan SLC, Inc.) were euthanized by cervical dislocation and the eyeballs were harvested. The harvested eyeballs were immersed in 70% ethanol for 10 seconds and transferred to a Hanks' balanced salt solution containing 100 U/mL penicillin and 100 μg/mL streptomycin. Under a stereoscopic microscope, the corneas, irises, crystalline lenses, and vitreous bodies were removed using scissors for surgery and forceps, and the retinal tissue was harvested. The harvested retinal tissue was transferred to a centrifugation tube containing 5 mL of a basal medium for neuronal cells (Neurobasal, Invitrogen) containing 100 U/mL penicillin, 100 μg/mL streptomycin, a neural cell culture supplement (B27™-Supplement, Invitrogen), 1 μM L-cysteine (Kyowa Hakko Bio) and 15 U/mL papain (Sigma Aldrich) and incubated at 37° C. for 30 minutes. […]"}, "ARPE-19": {"test_system": "ARPE-19", "assay": "Protective effect for retinal pigment epithelial cells against oxidative stress by hydrogen peroxide", "format": "cell-based, human", "conditions": "all-trans form content 280 μM, 14 hours, then 750 μM hydrogen peroxide 2 hours, FIG. 4, n=3", "from_the_text": "The involvement of oxidative stress in ophthalmologic diseases has been widely reported. Such involvement has been observed in, in addition to glaucoma and cataract, retinal diseases such as retinal diseases due to diabetes, hypertension, hyperlipemia, etc., age-related macular degeneration, retinopathy of prematurity, retinal vascular occlusion, retinal light damage, etc. (Nippon Ganka Gakkai Zasshi. 112, 22-29 (2008)). In the retina, the retinal pigment epithelium exists in an environment in which reactive oxygen easily generates (Invest Opthalmol Vis Sci. 2006 July 47(7): 3164-3177.). […]\nAfter 2 hours of incubation, the cell culture supernatant was removed, and 200 μL of PBS was added to each well and promptly removed. Then, 100 μL of an equivalent mixture of a cell viability detection reagent Cell Titer-Glo (Promega) and PBS was added to each well and the luminescence produced by the reaction with ATP in living cells was measured with a luminometer (GloMax; Promega). The cell viability was calculated from the measured luminescence by the following formula and the cytoprotective effect of GGA against oxidative stress by hydrogen peroxide was examined.\nCell viability (%)=100×[(luminescence of base- or GGA-treated group)/(luminescence of non-treated group)]"}}}
{"smiles": "CC(=O)CC/C=C(\\C)CC/C=C(\\C)CC/C=C(\\C)CCC=C(C)C", "note": "[all-trans form, (5E,9E,13E)-6,10,14,18-tetramethyl-5,9,13,17-nonadecatetrae n-2-one]", "values": [{"measurement": "Neurite inducing effect (mean length of neurites of RGC) compared with GGA 6:4 and base", "setting": "[1]", "value": "significant neurite inducing effect"}, {"measurement": "Cell viability compared with base-treated group", "setting": "ARPE-19", "value": "significantly higher cell viabilities"}]}
